Measurements as given in article PMC4097363, “Trace amines inhibit insect odorant receptor function through antagonism of the co-receptor subunit” (F1000Research, 2014).
Read-outs that look alike come from different tables or passages of the source.

Assays:
Assay type in all cases: cell-based
Agam\Orco = target: T1, Agam\Orco (Anopheles gambiae, UniProt Q7QCC7); experiment: Antagonism of OLC12 activation of Orco in Xenopus oocytes; settings: 30µM OLC12, 10µM tryptamine
T1 sequence (Q7QCC7 1-478): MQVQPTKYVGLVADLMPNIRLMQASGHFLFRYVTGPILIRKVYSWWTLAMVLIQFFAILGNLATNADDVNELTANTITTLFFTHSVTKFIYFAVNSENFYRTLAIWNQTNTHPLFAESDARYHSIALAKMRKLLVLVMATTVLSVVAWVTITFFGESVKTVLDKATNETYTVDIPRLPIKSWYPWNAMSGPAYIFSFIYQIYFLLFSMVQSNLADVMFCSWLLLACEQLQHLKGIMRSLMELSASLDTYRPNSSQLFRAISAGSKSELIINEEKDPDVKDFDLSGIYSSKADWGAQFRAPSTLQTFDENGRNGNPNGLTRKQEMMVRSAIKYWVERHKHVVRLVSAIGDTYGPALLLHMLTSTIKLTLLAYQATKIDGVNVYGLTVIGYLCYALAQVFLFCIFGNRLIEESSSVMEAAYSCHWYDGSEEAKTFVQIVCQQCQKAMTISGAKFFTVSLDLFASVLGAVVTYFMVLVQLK
Procedure: (§1) Follicle cells were removed by treatment with collagenase B (Boehringer Mannheim) for 2 hours at room temperature. Capped cRNA encoding each OR subunit was generated using mMessage mMachine kits (Ambion). For heteromeric ORs, 25 ng of cRNA encoding each OR subunit was injected into Stage V-VI Xenopus oocytes. For expression of Orco homomers, 50 ng of cRNA was injected. Oocytes were incubated at 18°C in Barth's saline (in mM: 88 NaCl, 1 KCl, 2.4 NaHCO 3, 0.3 CaNO 3, 0.41 CaCl 2, 0.82 MgSO 4, 15 HEPES, pH 7.6, and 150µg/ml ceftazidime) for 2–5 days prior to electrophysiological recording.
(§2) Odorant and Orco ligand induced currents were recorded under two-electrode voltage clamp, using an automated parallel electrophysiology system (OpusExpress 6000A, Molecular Devices). Oocytes were perfused with ND96 (in mM: 96 NaCl, 2 KCl, 1 CaCl 2, 1 MgCl 2, 5 HEPES, pH 7.5). Orco ligands were prepared as 50 or 100 mM stock solutions in DMSO and then diluted into ND96 on the day of the experiment. Odorants were prepared as 100 mM stock solutions in DMSO and then diluted into ND96. Unless otherwise noted, applications were for 60 sec at a flow rate of 1.0 ml/min, with extensive washing in ND96 at 4.6 ml/min between applications. Micropipettes were filled with 3 M KCl and had resistances of 0.2–2.0 MΩ. The holding potential was -70 mV. […]

Dmel\Orco = target: T2, Dmel\Orco (Drosophila melanogaster, UniProt Q9VNB5); experiment: as above; settings: 20µM OLC12, 10µM tryptamine
T2 sequence (Q9VNB5 1-486): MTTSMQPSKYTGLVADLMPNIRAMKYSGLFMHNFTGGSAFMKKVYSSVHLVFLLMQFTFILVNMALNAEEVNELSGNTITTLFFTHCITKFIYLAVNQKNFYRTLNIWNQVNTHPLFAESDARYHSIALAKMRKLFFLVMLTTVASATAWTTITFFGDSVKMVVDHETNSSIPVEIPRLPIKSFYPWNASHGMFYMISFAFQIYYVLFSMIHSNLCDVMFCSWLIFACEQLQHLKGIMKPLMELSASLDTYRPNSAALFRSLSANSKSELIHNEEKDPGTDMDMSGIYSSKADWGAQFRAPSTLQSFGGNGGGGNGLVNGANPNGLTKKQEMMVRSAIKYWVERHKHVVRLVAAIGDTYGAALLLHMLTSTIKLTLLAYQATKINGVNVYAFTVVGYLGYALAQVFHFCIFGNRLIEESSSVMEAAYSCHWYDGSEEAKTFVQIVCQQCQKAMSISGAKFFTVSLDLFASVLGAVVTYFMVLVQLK
Procedure: as §1, §2

Agam\Orco+Agam\Or65 = Agam\Orco+Agam\Or65 (Anopheles gambiae, UniProt Q7QCC7); experiment: Antagonism of OLC12 activation of heteromeric OR in Xenopus oocytes; settings: for IC50: read-out: IC 50 for inhibition of Agam\Orco+Agam\Or65 activation
Procedure: as §1
Odorant and Orco ligand induced currents were recorded under two-electrode voltage clamp, using an automated parallel electrophysiology system (OpusExpress 6000A, Molecular Devices). Oocytes were perfused with ND96 (in mM: 96 NaCl, 2 KCl, 1 CaCl 2, 1 MgCl 2, 5 HEPES, pH 7.5). Orco ligands were prepared as 50 or 100 mM stock solutions in DMSO and then diluted into ND96 on the day of the experiment. Odorants were prepared as 100 mM stock solutions in DMSO and then diluted into ND96. Unless otherwise noted, applications were for 60 sec at a flow rate of 1.0 ml/min, with extensive washing in ND96 at 4.6 ml/min between applications. Micropipettes were filled with 3 M KCl and had resistances of 0.2–2.0 MΩ. The holding potential was -70 mV. Current responses, filtered (4-pole, Bessel, low pass) at 20 Hz (-3 db) and sampled at 100 Hz, were captured and stored using OpusXpress 1.1 software (Molecular Devices).
To screen for agonist activity, oocytes were exposed to 30 sec applications of candidate compounds with 5 min washes between applications ( Figure 2A). For the concentration-response protocol ( Table 1), applications were for 20 sec at a flow rate of 1.65 ml/min. […]
Initial analysis of electrophysiological data was done using Clampfit 9.1 software (Molecular Devices). […] Statistical significance (p<0.05) was assessed using a two-tailed unpaired t test, an F test, or a one-way analysis of variance followed by the Dunnett's post-test, as appropriate.

## NCCc1c[nH]c2ccccc12 [tryptamine]
Agam\Orco
  inhibition of OLC12 activation of Orco: inhibited OLC12 activation of Orco from each of these three insect species
Dmel\Orco
  inhibition of OLC12 activation of Orco: inhibited OLC12 activation of Orco from each of these three insect species
Agam\Orco+Agam\Or65; Agam\Orco+Agam\Or65, 20µM vs 100µM OLC12
  mechanism of inhibition of OLC12 activation: competitively inhibits OLC12 activation
Agam\Orco+Agam\Or65; activated by 20µM OLC12
  IC50: 2.9 ± 0.5 µM
Agam\Orco+Agam\Or65; activated by 100µM OLC12
  IC50: 8.5 ± 1.1 µM
